Experimental data reported in ChEMBL document CHEMBL1201862, “PubChem BioAssay data set” (2004).
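1) Cells in 96-well plates. 2) Compound, 48 h, 5 concentrations. 3) Linear interpolation between surrounding doses. 4) Unreached endpoint = highest concentration. The concentration for 50% growth inhibition is given as GI50.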 Active and inactive are the calls of the source. No stated cut-off is given here; in the data, active = GI50 up to about 1.1 µM and inactive = higher.

How the values were obtained:
Assay in all cases: growth of human tumour cells (NCI), 48 h
[1] = tested on: 786-0
[2] = tested on: A549
[3] = tested on: ACHN
[4] = tested on: BT-549
[5] = tested on: CAKI-1
[6] = tested on: CCRF-CEM
[7] = tested on: COLO 205
[8] = tested on: DU-145
[9] = tested on: EKVX
[10] = tested on: HCC 2998
[11] = tested on: HCT-116
[12] = tested on: HCT-15
[13] = tested on: HL-60
[14] = tested on: HOP-62
[15] = tested on: HT-29
[16] = tested on: IGROV-1
[17] = tested on: K562
[18] = tested on: KM12
[19] = tested on: LOX IMVI
[20] = tested on: M14
[21] = tested on: MCF7
[22] = tested on: MDA-MB-231
[23] = tested on: MDA-MB-435
[24] = tested on: MDA-N
[25] = tested on: MOLT-4
[26] = tested on: Malme-3M
[27] = tested on: NCI-H226
[28] = tested on: NCI/ADR-RES
[29] = tested on: OVCAR-3
[30] = tested on: OVCAR-5
[31] = tested on: OVCAR-8
[32] = tested on: PC-3
[33] = tested on: RPMI-8226
[34] = tested on: SF-268
[35] = tested on: SF-295
[36] = tested on: SF-539
[37] = tested on: SK-MEL-28
[38] = tested on: SK-MEL-5
[39] = tested on: SK-OV-3
[40] = tested on: SN12C
[41] = tested on: SNB-19
[42] = tested on: SNB-75
[43] = tested on: SR
[44] = tested on: SW-620
[45] = tested on: T47D
[46] = tested on: TK-10
[47] = tested on: U-251
[48] = tested on: UACC-257
[49] = tested on: UACC-62
[50] = tested on: UO-31
[51] = tested on: A498
[52] = tested on: HOP-92
[53] = tested on: NCI-H23
[54] = tested on: NCI-H460
[55] = tested on: NCI-H522
[56] = tested on: OVCAR-4
[57] = tested on: RXF 393
[58] = tested on: SK-MEL-2

COc1ccc2c(c1)CCCN1CCc3cc(OC)c(OC)cc3C21 (centres undefined)
GI50 [1]: > 100 µM (inactive) | GI50 [2]: > 100 µM (inactive) | GI50 [3]: 84.1 µM (inactive) | GI50 [4]: 4.09 µM (inactive) | GI50 [5]: > 100 µM (inactive) | GI50 [6]: > 100 µM (inactive) | GI50 [7]: > 100 µM (inactive) | GI50 [8]: > 100 µM (inactive) | GI50 [9]: > 100 µM (inactive) | GI50 [10]: 45.7 µM (inactive) | GI50 [11]: 76 µM (inactive) | GI50 [12]: > 100 µM | GI50 [13]: 41.1 µM (inactive) | GI50 [14]: > 100 µM (inactive) | GI50 [15]: 47.9 µM (inactive) | GI50 [16]: > 100 µM (inactive) | GI50 [17]: 61.7 µM (inactive) | GI50 [18]: > 100 µM (inactive) | GI50 [19]: 77.1 µM (inactive) | GI50 [20]: > 100 µM (inactive) | GI50 [21]: > 100 µM (inactive) | GI50 [22]: > 100 µM (inactive) | GI50 [23]: > 100 µM (inactive) | GI50 [24]: > 100 µM (inactive) | GI50 [25]: 50.5 µM (inactive) | GI50 [26]: > 100 µM (inactive) | GI50 [27]: > 100 µM (inactive) | GI50 [28]: 21.8 µM (inactive) | GI50 [29]: > 100 µM (inactive) | GI50 [30]: > 100 µM (inactive) | GI50 [31]: > 100 µM (inactive) | GI50 [32]: > 100 µM (inactive) | GI50 [33]: 71.4 µM (inactive) | GI50 [34]: > 100 µM (inactive) | GI50 [35]: 46.5 µM (inactive) | GI50 [36]: 35.5 µM (inactive) | GI50 [37]: > 100 µM (inactive) | GI50 [38]: > 100 µM (inactive) | GI50 [39]: > 100 µM (inactive) | GI50 [40]: > 100 µM (inactive) | GI50 [41]: > 100 µM (inactive) | GI50 [42]: > 100 µM (inactive) | GI50 [43]: > 100 µM (inactive) | GI50 [44]: > 100 µM (inactive) | GI50 [45]: > 100 µM (inactive) | GI50 [46]: > 100 µM (inactive) | GI50 [47]: > 100 µM (inactive) | GI50 [48]: > 100 µM (inactive) | GI50 [49]: > 100 µM (inactive) | GI50 [50]: 25.5 µM (inactive)

NN/C(=N\S(=O)(=O)c1ccc(-c2ccccn2)s1)Nc1ccc(Cl)cc1
GI50 [1]: 29.2 µM (inactive) | GI50 [51]: > 100 µM (inactive) | GI50 [2]: 59 µM (inactive) | GI50 [3]: > 100 µM (inactive) | GI50 [4]: > 100 µM (inactive) | GI50 [5]: 58.6 µM (inactive) | GI50 [7]: > 100 µM (inactive) | GI50 [8]: > 100 µM (inactive) | GI50 [9]: 53.6 µM (inactive) | GI50 [11]: > 100 µM (inactive) | GI50 [12]: > 100 µM | GI50 [13]: > 100 µM (inactive) | GI50 [14]: 38.9 µM (inactive) | GI50 [52]: 68.5 µM (inactive) | GI50 [15]: > 100 µM (inactive) | GI50 [16]: > 100 µM (inactive) | GI50 [17]: > 100 µM (inactive) | GI50 [18]: > 100 µM (inactive) | GI50 [19]: > 100 µM (inactive) | GI50 [20]: > 100 µM (inactive) | GI50 [21]: > 100 µM (inactive) | GI50 [22]: > 100 µM (inactive) | GI50 [24]: > 100 µM (inactive) | GI50 [25]: 32.7 µM (inactive) | GI50 [27]: 75.2 µM (inactive) | GI50 [53]: > 100 µM (inactive) | GI50 [54]: > 100 µM (inactive) | GI50 [55]: 0.265 µM (active) | GI50 [28]: > 100 µM (inactive) | GI50 [29]: 73.8 µM (inactive) | GI50 [56]: 85.9 µM (inactive) | GI50 [30]: > 100 µM (inactive) | GI50 [31]: 83.6 µM (inactive) | GI50 [32]: > 100 µM (inactive) | GI50 [33]: > 100 µM (inactive) | GI50 [57]: 30.5 µM (inactive) | GI50 [34]: 22.1 µM (inactive) | GI50 [35]: 52.5 µM (inactive) | GI50 [36]: 38.9 µM (inactive) | GI50 [37]: > 100 µM (inactive) | GI50 [58]: > 100 µM (inactive) | GI50 [38]: > 100 µM (inactive) | GI50 [39]: 88.9 µM (inactive) | GI50 [40]: > 100 µM (inactive) | GI50 [41]: 42.1 µM (inactive) | GI50 [42]: 25.6 µM (inactive) | GI50 [44]: > 100 µM (inactive) | GI50 [45]: 38.1 µM (inactive) | GI50 [46]: > 100 µM (inactive) | GI50 [47]: 44.2 µM (inactive) | GI50 [48]: > 100 µM (inactive) | GI50 [49]: > 100 µM (inactive) | GI50 [50]: 43.9 µM (inactive)

C(=C\c1ccccc1)/Cn1nc(-c2ccccc2)nc1-c1cnccn1
GI50 [1]: > 100 µM (inactive) | GI50 [2]: > 100 µM (inactive) | GI50 [4]: > 100 µM (inactive) | GI50 [6]: > 100 µM (inactive) | GI50 [7]: > 100 µM (inactive) | GI50 [8]: > 100 µM (inactive) | GI50 [9]: > 100 µM (inactive) | GI50 [10]: > 100 µM (inactive) | GI50 [11]: > 100 µM (inactive) | GI50 [12]: > 100 µM | GI50 [13]: > 100 µM (inactive) | GI50 [14]: > 100 µM (inactive) | GI50 [52]: 35.9 µM (inactive) | GI50 [15]: > 100 µM (inactive) | GI50 [16]: > 100 µM (inactive) | GI50 [17]: > 100 µM (inactive) | GI50 [18]: > 10 µM (inactive) | GI50 [19]: > 100 µM (inactive) | GI50 [20]: > 100 µM (inactive) | GI50 [21]: > 100 µM (inactive) | GI50 [22]: > 100 µM (inactive) | GI50 [23]: > 100 µM (inactive) | GI50 [24]: > 100 µM (inactive) | GI50 [25]: > 100 µM (inactive) | GI50 [53]: > 100 µM (inactive) | GI50 [54]: > 100 µM (inactive) | GI50 [55]: > 100 µM (inactive) | GI50 [29]: > 100 µM (inactive) | GI50 [56]: 68.9 µM (inactive) | GI50 [30]: > 100 µM (inactive) | GI50 [31]: > 100 µM (inactive) | GI50 [32]: > 100 µM (inactive) | GI50 [33]: > 100 µM (inactive) | GI50 [57]: > 100 µM (inactive) | GI50 [34]: > 100 µM (inactive) | GI50 [35]: > 100 µM (inactive) | GI50 [36]: > 100 µM (inactive) | GI50 [37]: > 100 µM (inactive) | GI50 [38]: 29.5 µM (inactive) | GI50 [39]: 66.7 µM (inactive) | GI50 [40]: > 100 µM (inactive) | GI50 [41]: > 100 µM (inactive) | GI50 [42]: 18.7 µM (inactive) | GI50 [43]: > 100 µM (inactive) | GI50 [44]: > 100 µM (inactive) | GI50 [45]: > 100 µM (inactive) | GI50 [46]: > 100 µM (inactive) | GI50 [47]: > 100 µM (inactive) | GI50 [48]: > 100 µM (inactive) | GI50 [49]: > 100 µM (inactive) | GI50 [50]: > 100 µM (inactive)
